Test results published in PMC10749895, “ppGpp accumulation reduces the expression of the global nitrogen homeostasis-modulating NtcA regulon by affecting 2-oxoglutarate levels” (Communications Biology, 2023).

Legend:
[1] = molecular target: T1, Synpcc7942_0903 (aconitase, ACN) (Synechococcus elongatus, UniProt Q31PT6); experiment: aconitase activity, cis-aconitate formation at […] nm; assay type: biochemical; details: 1 mM citrate, 100 mM potassium phosphate pH 8.0, 30 °C, anaerobic
T1 construct: full-length gene in pET28a (NdeI/HindIII), N-terminal His6-tag, E. coli BL21-CodonPlus(DE3)-RIL, Ni column, purified anaerobically

[2] = molecular target: T1, Synpcc7942_0903 (aconitase, ACN); experiment: as above; assay type: biochemical; details: 0.25-10 µM ppGpp, 10 min preincubation; 1 mM citrate, 100 mM potassium phosphate pH 8.0, 30 °C, anaerobic; inhibitor

Row | relative activity (% of activity without ppGpp) at maximum inhibition [2] | SMILES | aconitase activity, cis-aconitate formation at 240 nm [1]
1 |  | O=C(O)CC(O)(CC(=O)O)C(=O)O [citrate] | monitoring the formation of cis-aconitate in a reaction mixture containing
2 | ~ 63 | Nc1nc2c(ncn2[C@@H]2O[C@H](COP(=O)(O)OP(=O)(O)O)[C@@H](OP(=O)(O)OP(=O)(O)O)[C@H]2O)c(=O)[nH]1 [ppGpp] | 
